# Measurements as given in patent US20080076757A1, “MEDICINE FOR TREATING GASTROINTESTINAL DISORDER INCLUDING IRRITABLE BOWEL SYNDROME” (priority 2003, published 2008).
# Key:
# depression = test: Treatment of recurrent depression in the patient of Example 4; type: in vivo, human; settings: after several weeks of the SSRI anti-depressant
# [1] = tested on: diarrhea-predominant irritable bowel syndrome (D-IBS); test: Treatment of spinal-injury patients presenting diarrhea-predominant irritable bowel syndrome (case Examples 1, 3-6)
# Description: The complaints include diarrhea-predominant irritable bowel syndrome (D-IBS, awake and sleeping).
# The patient is treated with a total daily dose of medicine, which includes 25 mg of tricyclic antidepressant (imipramine hydrochloride) and 300 mg of stool softener (docusate sodium).
# muscarinic receptors = test: Effect on muscarinic receptors and bowels (statement of the inventor); design: species or system human
# [2] = tested on: constipation-predominant IBS (C-IBS); settings: patients with C-IBS; cited from earlier work
compound,measurement,setting,value
CNCCC(Oc1ccc(C(F)(F)F)cc1)c1ccccc1.Cl (centres unmarked) [Prozac®],depression symptoms,depression,begins to obtain relief from the depression symptoms
"CN(C)CCCN1c2ccccc2CCc2ccccc21.O=C(O)c1cc2ccccc2c(Cc2c(O)c(C(=O)O)cc3ccccc23)c1O [imipramine pamoate, 5-[3-(dimethylamino)propyl]-10,11-dihydro-5H-dibenzazepine 4,4-methlyenebis-(3-hydroxyl-2-napthoate)]",control of bladder and bowel functions,"[1]; Example 3: person, L5-S1 degenerative disc disease, 75 mg/day imipramine pamoate alone, oral, after several days",full control of bladder and bowel functions
same,adverse effect,"[1]; Example 3, imipramine pamoate 75 mg/day without stool softener",develops constipation
"CN(C)CCCN1c2ccccc2CCc2ccccc21 [imipramine, 5-[3-(dimethylamino)propyl]-10,11-dihydro-5H-dibenzazepine]",muscarinic receptors affected,muscarinic receptors,primarily affects the M2 and M3 muscarinic receptors
C=C1CCC2(O)C3Cc4ccc(OC5OC(C(=O)O)C(O)C(O)C5O)c5c4C2(CCN3CC2CC2)C1O5 (centres unmarked) [nalmefene glucuronide],abdominal pain or bloating,[2],did not reduce abdominal pain or bloating
same,stool consistency,[2],stool consistency was not improved
same,stool frequency,[2],increased stool frequency
same,transit time,[2],decreased transit time
